# “And” between values parts separate entries of the source, which are not always exact repeats. Equal entries are not always repeated. Where two headings read alike, the source gives them in different places.
# Key:
# BRD4 = BRD4 (Homo sapiens, UniProt O60885); assay: Western blot of BRD4 levels after cellular dosing; conditions: for BRD4 level, Western blot quantification (DMSO = 100): U2OS KO/rescue Dose Response; for BRD4 (DMSO = 100): Rep1, Rep2
# [1] = test system: BD2 domain from BRD2, BRD3, or BRD4 / neddylated CRL2^KLHDC2; assay: Pulse-chase PROTAC-dependent ubiquitylation of BRD BD2 domains by neddylated CRL2^KLHDC2; conditions: prodrug tested
# BRD3 = BRD3 (Homo sapiens, UniProt Q15059); assay: Western blot of BRD3 levels after cellular dosing
# BRD3, sequence (Q15059 whole entry): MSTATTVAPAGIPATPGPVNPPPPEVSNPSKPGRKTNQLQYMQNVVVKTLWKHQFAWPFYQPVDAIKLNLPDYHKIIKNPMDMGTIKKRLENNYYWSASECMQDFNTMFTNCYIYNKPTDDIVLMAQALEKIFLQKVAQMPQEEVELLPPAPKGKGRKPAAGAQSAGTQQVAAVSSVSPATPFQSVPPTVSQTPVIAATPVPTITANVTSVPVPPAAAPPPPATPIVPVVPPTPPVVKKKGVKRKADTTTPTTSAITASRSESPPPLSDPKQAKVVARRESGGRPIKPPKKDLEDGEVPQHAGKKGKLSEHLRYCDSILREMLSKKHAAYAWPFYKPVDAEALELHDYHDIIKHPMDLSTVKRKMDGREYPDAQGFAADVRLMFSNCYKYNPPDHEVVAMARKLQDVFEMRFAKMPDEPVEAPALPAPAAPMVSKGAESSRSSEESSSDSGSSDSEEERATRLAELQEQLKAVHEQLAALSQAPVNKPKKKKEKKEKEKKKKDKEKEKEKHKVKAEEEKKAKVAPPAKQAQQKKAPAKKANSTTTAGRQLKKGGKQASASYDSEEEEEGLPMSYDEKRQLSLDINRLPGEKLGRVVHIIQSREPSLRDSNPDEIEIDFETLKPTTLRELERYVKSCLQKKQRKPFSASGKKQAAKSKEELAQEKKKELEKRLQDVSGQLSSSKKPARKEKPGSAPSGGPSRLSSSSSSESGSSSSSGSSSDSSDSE
smiles,measurement,setting,value
COC(=O)CNC(=O)Cc1csc(-c2ccc3cccc(OCCN4CCN(C(=O)C[C@@H]5N=C(c6ccc(Cl)cc6)c6c(sc(C)c6C)-n6c(C)nnc65)CC4)c3c2)n1 [SJ46420],"BRD4 level, Western blot quantification (DMSO = 100)","BRD4; Fig S6d, 0.625 uM",69.2459 and 75.342
same,"BRD4 level, Western blot quantification (DMSO = 100)","BRD4; Fig S6d, 1.25 uM",72.3683 and 63.23
same,"BRD4 level, Western blot quantification (DMSO = 100)","BRD4; Fig S6d, 2.5 uM",72.6616 and 79.232
same,"BRD4 level, Western blot quantification (DMSO = 100)","BRD4; Fig S6d, 5 uM",65.5064 and 72.323
same,BRD4 level relative to DMSO (100%),"BRD4; MDA-MB-468, 2.5µM, 24 h, Fig S6b",90 +/- 6.3%
same,BRD4 level relative to DMSO (100%),"BRD4; MDA-MB-468, 5µM, 24 h, Fig S6b",78 +/- 4.3%
same,BRD4 level relative to DMSO (100%),"BRD4; MDA-MB-468, 10µM, 24 h, Fig S6b",68 +/- 3.6%
same,BRD4 level relative to DMSO (100%),"BRD4; PC3, 0.16µM, 24 h, Fig S6e",78 +/- 4.1%
same,BRD4 level relative to DMSO (100%),"BRD4; PC3, 0.31µM, 24 h, Fig S6e",80 +/- 7.3%
same,BRD4 level relative to DMSO (100%),"BRD4; PC3, 0.63µM, 24 h, Fig S6e",72 +/- 4.3%
same,BRD4 level relative to DMSO (100%),"BRD4; PC3, 1.3µM, 24 h, Fig S6e",67 +/- 6.5%
same,BRD4 level relative to DMSO (100%),"BRD4; PC3, 2.5µM, 24 h, Fig S6e",75 +/- 4.7%
same,BRD4 level relative to DMSO (100%),"BRD4; PC3, 5µM, 24 h, Fig S6e",68 +/- 4.8%
same,BRD4 level relative to DMSO (100%),"BRD4; PC3, 10µM, 24 h, Fig S6e",44 +/- 5.7%
same,BRD4 (DMSO = 100),"BRD4; PC3 cells, Log SJ46420 1.89279",90.1763 and 93.433
same,BRD4 (DMSO = 100),"BRD4; PC3 cells, Log SJ46420 4",40.11 and 48.232
same,BRD4 level relative to DMSO (100%),"BRD4; SKBR3, 1µM, 2hr, Fig S6g",102 +/- 3.1%
same,BRD4 level relative to DMSO (100%),"BRD4; SKBR3, 1µM, 4hr, Fig S6g",78 +/- 4.7%
same,BRD4 level relative to DMSO (100%),"BRD4; SKBR3, 1µM, 8hr, Fig S6g",75 +/- 4.5%
same,BRD4 level relative to DMSO (100%),"BRD4; SKBR3, 5µM, 2hr, Fig S6g",104 +/- 6.7%
same,BRD4 level relative to DMSO (100%),"BRD4; SKBR3, 5µM, 4hr, Fig S6g",63 +/- 5.8%
same,BRD4 level relative to DMSO (100%),"BRD4; SKBR3, 5µM, 4hr, Fig S6j",78 +/- 8.2%
same,BRD4 level relative to DMSO (100%),"BRD4; SKBR3, 5µM, 8hr, Fig S6g",55 +/- 5.1%
same,BRD4 level relative to DMSO (100%),"BRD4; U2OS DC2KO (KLHDC2 knockout), 5µM, 24 h, Fig 6b",99 +/- 12%
same,BRD4 (DMSO = 100),"BRD4; U2OS KO/Rescue cells, Log SJ46420 1.59176",106.334 and 102.232
same,BRD4 level relative to DMSO (100%),"BRD4; U2OS KO/Rescue, 0.16µM, 24 h, Fig S6d",92 +/- 9.3%
same,BRD4 level relative to DMSO (100%),"BRD4; U2OS KO/Rescue, 0.31µM, 24 h, Fig S6d",83 +/- 16%
same,BRD4 level relative to DMSO (100%),"BRD4; U2OS KO/Rescue, 0.63µM, 24 h, Fig S6d",69 +/- 12%
same,BRD4 level relative to DMSO (100%),"BRD4; U2OS KO/Rescue, 1µM, 24 h, Fig 6c",90 +/- 4.1%
same,BRD4 level relative to DMSO (100%),"BRD4; U2OS KO/Rescue, 1µM, 24 h, Fig 6d",75 +/- 10%
same,BRD4 level relative to DMSO (100%),"BRD4; U2OS KO/Rescue, 1.3µM, 24 h, Fig S6d",46 +/- 15%
same,BRD4 level relative to DMSO (100%),"BRD4; U2OS KO/Rescue, 2.5µM, 24 h, Fig S6d",26 +/- 2.1%
same,BRD4 level relative to DMSO (100%),"BRD4; U2OS KO/Rescue, 5µM, 24 h, Fig S6d",3.4 +/- 0.69%
same,BRD4 Dmax,"BRD4; U2OS KO/Rescue, 24 h dose",~ 100%
same,BRD4 level relative to DMSO (100%),"BRD4; U2OS KO/Rescue, concentration not printed (line after 5µM), 24 h, Fig S6d",0.51 +/- 0.21%
same,BRD4 level relative to DMSO (100%),"BRD4; U2OS, 5µM, 4hr, Fig S6h",96 +/- 7.2%
same,BRD4 level relative to DMSO (100%),"BRD4; U2OS, 5µM, 8hr, Fig S6i",176 +/- 28%
same,BRD4 level relative to DMSO (100%),"BRD4; U2OS, 5µM, 8hr, Fig S6h",69 +/- 4.4%
same,BRD4 level relative to DMSO (100%),"BRD4; U2OS, 5µM, 24 h, Fig 6b",74 +/- 4.1%
same,BRD4 level relative to DMSO (100%),"BRD4; U2OS, 5µM, 24hr, Fig S6h",60 +/- 5.6%
same,Dmax,"BRD4; U2OS, read-out: BRD4 Dmax, U2OS KO/Rescue, 24 h dose",99.4%
same,Dmax,"BRD4; read-out: BRD4 Dmax, PC3, 24 h dose",59.5%
same,ubiquitylation of BRD3BD2 in reconstituted biochemical assays,[1],unable to promote ubiquitylation
same,selectivity for BRD3 over BRD4 (DC50),BRD3; 22Rv1,~ 44 fold
same,remaining activity at 0.16 µM,"BRD3; 22Rv1, 24 h, read-out: BRD3 level relative to DMSO (100%), 22Rv1, 0.16µM, 24 h, Fig S6f",74 ± 4.4%
same,remaining activity at 0.31 µM,"BRD3; 22Rv1, 24 h, read-out: BRD3 level relative to DMSO (100%), 22Rv1, 0.31µM, 24 h, Fig S6f",54 ± 11%
same,remaining activity at 0.63 µM,"BRD3; 22Rv1, 24 h, read-out: BRD3 level relative to DMSO (100%), 22Rv1, 0.63µM, 24 h, Fig S6f",45 ± 4.6%
same,remaining activity at 1.3 µM,"BRD3; 22Rv1, 24 h, read-out: BRD3 level relative to DMSO (100%), 22Rv1, 1.3µM, 24 h, Fig S6f",27 ± 2.2%
same,remaining activity at 2.5 µM,"BRD3; 22Rv1, 24 h, read-out: BRD3 level relative to DMSO (100%), 22Rv1, 2.5µM, 24 h, Fig S6f",21 ± 3.7%
same,remaining activity at 5 µM,"BRD3; 22Rv1, 24 h, read-out: BRD3 level relative to DMSO (100%), 22Rv1, 5µM, 24 h, Fig S6f",4.3 ± 3.5%
same,remaining activity at 10 µM,"BRD3; 22Rv1, 24 h, read-out: BRD3 level relative to DMSO (100%), 22Rv1, 10µM, 24 h, Fig S6f",2.9 ± 2.8%
same,remaining activity at 2.19382 µM,"BRD3; 22Rv1, read-out: BRD3 (DMSO = 100), 22Rv1 cells, Log SJ46420 (uM) 2.19382, Rep1, Rep2",71.3%
same,remaining activity at 2.49485 µM,"BRD3; 22Rv1, read-out: BRD3 (DMSO = 100), 22Rv1 cells, Log SJ46420 (uM) 2.49485, Rep1, Rep2",46.9%
same,remaining activity at 2.79588 µM,"BRD3; 22Rv1, read-out: BRD3 (DMSO = 100), 22Rv1 cells, Log SJ46420 (uM) 2.79588, Rep1, Rep2",42.3%

# Source: publication PMC11470957, “Principles of paralog-specific targeted protein degradation engaging the C-degron E3 KLHDC2” (Nature Communications, 2024)
